Consider four molecules from ChEMBL document CHEMBL1629464, “Aldehyde oxidase: an enzyme of emerging importance in drug discovery” (J Med Chem, 2010).

Data set [1] is described as follows: Oral bioavailability in dog. In kind it is ADME, organism-based, Canis lupus familiaris. The note with it: in vivo.
In data set [2] the target is T1, Aldehyde oxidase 1 (Macaca fascicularis, UniProt Q5FB27).
T1 sequence (Q5FB27 whole entry): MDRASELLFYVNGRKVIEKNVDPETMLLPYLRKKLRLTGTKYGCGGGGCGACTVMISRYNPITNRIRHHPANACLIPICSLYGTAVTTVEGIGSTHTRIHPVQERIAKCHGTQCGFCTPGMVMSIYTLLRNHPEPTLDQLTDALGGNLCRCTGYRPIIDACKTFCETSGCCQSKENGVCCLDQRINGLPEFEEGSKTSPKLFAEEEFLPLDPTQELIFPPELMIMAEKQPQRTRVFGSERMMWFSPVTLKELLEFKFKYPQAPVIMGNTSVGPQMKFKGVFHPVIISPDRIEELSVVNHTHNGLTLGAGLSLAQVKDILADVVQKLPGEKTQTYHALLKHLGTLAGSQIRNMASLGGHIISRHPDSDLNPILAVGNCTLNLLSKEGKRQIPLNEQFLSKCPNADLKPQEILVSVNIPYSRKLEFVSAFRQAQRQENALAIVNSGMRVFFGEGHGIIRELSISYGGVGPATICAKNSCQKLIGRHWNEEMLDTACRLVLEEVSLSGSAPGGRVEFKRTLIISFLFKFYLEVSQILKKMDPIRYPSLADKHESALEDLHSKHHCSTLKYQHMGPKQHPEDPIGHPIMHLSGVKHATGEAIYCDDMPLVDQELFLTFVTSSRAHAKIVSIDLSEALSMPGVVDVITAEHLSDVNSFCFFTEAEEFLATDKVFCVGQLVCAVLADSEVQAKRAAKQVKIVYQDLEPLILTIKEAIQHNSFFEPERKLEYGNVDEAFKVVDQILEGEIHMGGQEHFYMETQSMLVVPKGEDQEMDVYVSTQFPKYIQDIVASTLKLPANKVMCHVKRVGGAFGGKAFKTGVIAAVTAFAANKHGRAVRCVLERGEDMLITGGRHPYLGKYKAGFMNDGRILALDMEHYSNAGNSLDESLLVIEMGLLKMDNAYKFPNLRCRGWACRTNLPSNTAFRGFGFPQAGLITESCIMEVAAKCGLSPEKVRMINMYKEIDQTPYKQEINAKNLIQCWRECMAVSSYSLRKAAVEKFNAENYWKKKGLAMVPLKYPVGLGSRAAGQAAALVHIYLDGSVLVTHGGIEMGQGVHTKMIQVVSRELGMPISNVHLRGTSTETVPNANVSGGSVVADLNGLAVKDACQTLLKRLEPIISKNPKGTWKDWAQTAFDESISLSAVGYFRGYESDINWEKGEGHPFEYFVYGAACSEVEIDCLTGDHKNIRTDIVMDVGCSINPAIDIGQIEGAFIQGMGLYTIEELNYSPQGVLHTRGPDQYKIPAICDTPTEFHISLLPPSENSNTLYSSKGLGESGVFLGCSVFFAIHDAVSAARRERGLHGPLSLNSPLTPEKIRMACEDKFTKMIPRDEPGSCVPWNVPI
As to the kind of experiment: Inhibition of monkey aldehyde oxidase.

For data set [3], the target named is T2, Aldehyde oxidase 1 (Rattus norvegicus, UniProt Q9Z0U5).
T2 sequence (Q9Z0U5 whole entry): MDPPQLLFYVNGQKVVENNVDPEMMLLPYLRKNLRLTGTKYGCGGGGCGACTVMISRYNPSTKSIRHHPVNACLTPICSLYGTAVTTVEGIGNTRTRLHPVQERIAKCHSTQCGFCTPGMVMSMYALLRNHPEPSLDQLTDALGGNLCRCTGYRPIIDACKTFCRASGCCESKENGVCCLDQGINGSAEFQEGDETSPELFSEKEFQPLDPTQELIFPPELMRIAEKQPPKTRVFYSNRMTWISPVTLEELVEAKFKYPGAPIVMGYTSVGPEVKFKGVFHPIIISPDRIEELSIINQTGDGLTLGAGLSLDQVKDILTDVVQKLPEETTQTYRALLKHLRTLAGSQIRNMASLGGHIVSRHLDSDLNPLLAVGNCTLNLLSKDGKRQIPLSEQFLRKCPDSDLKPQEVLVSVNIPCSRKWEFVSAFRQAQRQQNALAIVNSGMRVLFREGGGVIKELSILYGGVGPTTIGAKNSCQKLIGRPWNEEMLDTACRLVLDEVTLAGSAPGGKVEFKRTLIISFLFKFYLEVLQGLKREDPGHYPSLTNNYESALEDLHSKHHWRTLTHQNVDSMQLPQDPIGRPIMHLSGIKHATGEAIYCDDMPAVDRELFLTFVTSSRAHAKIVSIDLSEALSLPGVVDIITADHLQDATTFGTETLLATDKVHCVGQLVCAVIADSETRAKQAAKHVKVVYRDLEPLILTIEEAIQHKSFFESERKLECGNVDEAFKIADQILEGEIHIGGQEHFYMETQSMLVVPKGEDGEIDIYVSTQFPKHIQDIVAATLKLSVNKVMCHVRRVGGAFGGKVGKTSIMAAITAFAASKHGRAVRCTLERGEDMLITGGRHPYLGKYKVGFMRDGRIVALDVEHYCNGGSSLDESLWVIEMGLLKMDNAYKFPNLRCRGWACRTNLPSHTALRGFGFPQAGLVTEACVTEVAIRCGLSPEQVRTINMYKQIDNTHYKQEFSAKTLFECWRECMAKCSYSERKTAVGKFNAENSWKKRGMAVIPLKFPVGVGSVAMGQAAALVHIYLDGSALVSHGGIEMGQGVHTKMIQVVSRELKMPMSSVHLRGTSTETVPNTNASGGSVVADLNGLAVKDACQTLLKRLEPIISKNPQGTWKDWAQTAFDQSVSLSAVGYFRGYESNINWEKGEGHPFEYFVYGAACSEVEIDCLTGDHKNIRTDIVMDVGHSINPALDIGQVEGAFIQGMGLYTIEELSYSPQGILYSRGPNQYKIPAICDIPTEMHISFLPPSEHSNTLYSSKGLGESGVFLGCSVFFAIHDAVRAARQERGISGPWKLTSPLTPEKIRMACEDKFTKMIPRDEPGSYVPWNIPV
Nature of the data set: Inhibition of rat aldehyde oxidase.

Data set [4] deals with T3, Aldehyde oxidase 1 (Mus musculus, UniProt O54754).
T3 sequence (O54754 whole entry): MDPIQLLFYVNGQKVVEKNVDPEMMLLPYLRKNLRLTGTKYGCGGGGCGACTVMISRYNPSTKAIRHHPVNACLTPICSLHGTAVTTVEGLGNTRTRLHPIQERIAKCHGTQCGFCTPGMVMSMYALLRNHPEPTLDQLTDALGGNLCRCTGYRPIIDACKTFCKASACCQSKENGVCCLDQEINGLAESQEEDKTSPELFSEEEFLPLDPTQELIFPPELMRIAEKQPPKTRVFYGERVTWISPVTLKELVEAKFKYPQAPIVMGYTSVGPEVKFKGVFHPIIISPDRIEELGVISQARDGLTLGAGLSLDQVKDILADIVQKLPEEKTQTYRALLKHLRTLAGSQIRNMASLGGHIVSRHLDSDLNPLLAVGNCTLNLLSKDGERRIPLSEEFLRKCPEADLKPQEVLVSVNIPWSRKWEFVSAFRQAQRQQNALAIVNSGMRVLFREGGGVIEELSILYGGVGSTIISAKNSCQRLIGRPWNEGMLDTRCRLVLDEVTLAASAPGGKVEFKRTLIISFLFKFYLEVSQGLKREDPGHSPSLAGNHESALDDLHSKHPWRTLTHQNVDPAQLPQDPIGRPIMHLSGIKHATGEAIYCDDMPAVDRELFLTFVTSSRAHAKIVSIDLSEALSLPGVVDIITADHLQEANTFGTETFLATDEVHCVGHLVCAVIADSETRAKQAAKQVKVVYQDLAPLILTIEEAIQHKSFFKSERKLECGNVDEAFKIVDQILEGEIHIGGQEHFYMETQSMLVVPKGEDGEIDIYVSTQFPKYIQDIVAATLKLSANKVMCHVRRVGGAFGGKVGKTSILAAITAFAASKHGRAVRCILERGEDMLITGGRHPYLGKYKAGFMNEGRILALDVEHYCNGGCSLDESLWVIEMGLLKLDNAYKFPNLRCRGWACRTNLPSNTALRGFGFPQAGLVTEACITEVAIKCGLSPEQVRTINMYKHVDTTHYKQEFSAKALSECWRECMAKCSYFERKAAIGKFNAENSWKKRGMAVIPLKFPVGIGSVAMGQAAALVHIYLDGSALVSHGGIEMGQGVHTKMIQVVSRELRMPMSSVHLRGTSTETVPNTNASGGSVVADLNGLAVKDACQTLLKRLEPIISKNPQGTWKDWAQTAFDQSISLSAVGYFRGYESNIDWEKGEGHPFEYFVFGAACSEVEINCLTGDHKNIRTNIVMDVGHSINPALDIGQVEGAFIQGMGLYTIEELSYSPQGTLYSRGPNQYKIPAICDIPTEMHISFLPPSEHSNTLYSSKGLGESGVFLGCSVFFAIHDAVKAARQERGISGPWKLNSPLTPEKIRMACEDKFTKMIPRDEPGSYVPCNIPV
As to the kind of experiment: Inhibition of mouse aldehyde oxidase.

The subject of data set [5] is Homo sapiens. Nature of the data set: In-vivo intrinsic clearance in human. In kind it is ADME, organism-based.
Substrate in data set [6]: CCN(C(C)=O)c1cccc(-c2ccnc3c(C#N)cnn23)c1
Nature of the data set: Activity of aldehyde oxidase in human liver cytosol. In kind it is ADME, tissue-based.

In turn, `CCNC(=O)OC1CCN(c2n[nH]c(=O)c3cc(OC)c(OC)cc23)CC1` came in with a bioavailability in data set [1] of 68%.

As to `O=C(c1ccc(OCCN2CCCCC2)cc1)c1c(-c2ccc(O)cc2)sc2cc(O)ccc12` [RALOXIFENE], the IC50 in data set [2] turned out to be 500 nM; in data set [3], 1100 nM; in data set [4], 500 nM.

In the case of `CCN(C(C)=O)c1cccc(-c2ccnc3c(C#N)cnn23)c1` [ZALEPLON], the CL in data set [5] was found to be 90 mL/min/kg.

B1: Aldehyde oxidase (Homo sapiens) (protein)
chain: MDRASELLFYVNGRKVIEKNVDPETMLLPYLRKKLRLTGTKYGCGGGGCGACTVMISRYNPITKRIRHHPANACLIPICSLYGAAVTTVEGIGSTHTRIHPVQERIAKCHGTQCGFCTPGMVMSIYTLLRNHPEPTLDQLTDALGGNLCRCTGYRPIIDACKTFCKTSGCCQSKENGVCCLDQGINGLPEFEEGSKTSPKLFAEEEFLPLDPTQELIFPPELMIMAEKQSQRTRVFGSERMMWFSPVTLKELLEFKFKYPQAPVIMGNTSVGPEVKFKGVFHPVIISPDRIEELSVVNHAYNGLTLGAGLSLAQVKDILADVVQKLPEEKTQMYHALLKHLGTLAGSQIRNMASLGGHIISRHPDSDLNPILAVGNCTLNLLSKEGKRQIPLNEQFLSKCPNADLKPQEILVSVNIPYSRKWEFVSAFRQAQRQENALAIVNSGMRVFFGEGDGIIRELCISYGGVGPATICAKNSCQKLIGRHWNEQMLDIACRLILNEVSLLGSAPGGKVEFKRTLIISFLFKFYLEVSQILKKMDPVHYPSLADKYESALEDLHSKHHCSTLKYQNIGPKQHPEDPIGHPIMHLSGVKHATGEAIYCDDMPLVDQELFLTFVTSSRAHAKIVSIDLSEALSMPGVVDIMTAEHLSDVNSFCFFTEAEKFLATDKVFCVGQLVCAVLADSEVQAKRAAKRVKIVYQDLEPLILTIEESIQHNSSFKPERKLEYGNVDEAFKVVDQILEGEIHMGGQEHFYMETQSMLVVPKGEDQEMDVYVSTQFPKYIQDIVASTLKLPANKVMCHVRRVGGAFGGKVLKTGIIAAVTAFAANKHGRAVRCVLERGEDMLITGGRHPYLGKYKAGFMNDGRILALDMEHYSNAGASLDESLFVIEMGLLKMDNAYKFPNLRCRGWACRTNLPSNTAFRGFGFPQAALITESCITEVAAKCGLSPEKVRIINMYKEIDQTPYKQEINAKNLIQCWRECMAMSSYSLRKVAVEKFNAENYWKKKGLAMVPLKFPVGLGSRAAGQAAALVHIYLDGSVLVTHGGIEMGQGVHTKMIQVVSRELRMPMSNVHLRGTSTETVPNANISGGSVVADLNGLAVKDACQTLLKRLEPIISKNPKGTWKDWAQTAFDESINLSAVGYFRGYESDMNWEKGEGQPFEYFVYGAACSEVEIDCLTGDHKNIRTDIVMDVGCSINPAIDIGQIEGAFIQGMGLYTIEELNYSPQGILHTRGPDQYKIPAICDMPTELHIALLPPSQNSNTLYSSKGLGESGVFLGCSVFFAIHDAVSAARQERGLHGPLTLNSPLTPEKIRMACEDKFTKMIPRDEPGSYVPWNVPI
Regarding B1, in data set [6], the Michaelis-Menten constant (Km) stood at 124 µM and the maximum rate (Vmax) was found to be 0.000564 µmol/min.

As a reminder, the bioavailability is the share of a dose that reaches the circulation, judged against a reference dose that is usually intravenous. The IC50 is the midpoint of a concentration-inhibition curve. In general, Km refers to the substrate concentration at which the rate is half of its maximum. Broadly, the Vmax is the rate approached at saturating substrate.
